# Experimental data from patent US20240325398A1, “COMBINATION THERAPIES” (Infinity Pharmaceuticals, Inc., priority 2014, published 2024).
# Assays:
# Jeko-1 = test: Combination study, ATPLite 72 h, dose matrix (Synergy Score, CI50); conditions: combination with Compound 1
# U-2932 = test: as above; conditions: combination with Compound 1, 72 h
# Farage = test: as above; conditions: combination with Compound 1; Farage; 72 h
# WSU-NHL = test: as above; conditions: combination with Compound 1, 72 h
# TMD8 = test: as above; conditions: combination with Compound 1; TMD8; 72 h
# HH = test: as above; format: cell-based; conditions: combination with Compound 1
# Experimental: The method is described as follows.
# Additive effect is CI=1.0. […] Antagonistic effect is CI>1.0.
# The Synergy Score is calculated as: […]
# SU-DHL-10-epst = test: as above; conditions: combination with Compound 1, 72 h
# Experimental: (§1) Cells are thawed from a liquid nitrogen preserved state. Once cells have been expanded and divide at their expected doubling times, screening begins. Cells are seeded in growth media in either black 1536-well or 384-well tissue culture treated plates. Cells are then equilibrated in assay plates via centrifugation and placed in incubators attached to the Dosing Modules at 37° C. for 24 hours before treatment. […] These Tzero (To) plates are read using ultra-sensitive luminescence on Envision plate readers (Perkin Elmer). Treated assay plates are incubated with compound for 72 hours. After 72 hours, plates are developed for endpoint analysis using ATPLite. All data points are collected via automated processes, quality controlled and analyzed using Zalicus software.
# The measure of effect in the experiment can be the inhibition of cellular response relative to the untreated level (vehicle alone). […] The inhibition ranges from 0% at the untreated level to 100% when T=0. Inhibition levels are negative for agents that actually increase levels.
# (§2) Growth Inhibition (GI) is used as a measure of cell viability. […] A GI reading of 100% represents complete growth inhibition—T72 compound-treated and T0 vehicle signals are matched. […] A GI reading of 200% represents complete death of all cells in the culture well. Compounds reaching an activity plateau of GI 200% are considered cytotoxic. GI is calculated by applying the following test and equation:
# (§3) Combination analysis data were collected in a 6×6 dose matrix. Synergy is calculated by comparing a combination's response to those of its single compound, against the drug-with-itself dose-additive reference model. Deviations from dose additivity may be assessed visually on an isobologram or numerically with a Combination Index (CI). […] Additive effect is CI=1.0. […] Antagonistic effect is CI>1.0.
# (§4) To measure combination effects in excess of Loewe additivity, a scalar measure to characterize the strength of synergistic interaction termed the Synergy Score is devised. The Synergy Score is calculated as:
# (§5) The fractional inhibition for each component agent and combination point in the matrix is calculated relative to the median of all vehicle-treated control wells. The Synergy Score equation integrates the experimentally-observed activity volume at each point in the matrix in excess of a model surface numerically derived from the activity of the component agents using the Loewe model for additivity. Additional terms in the Synergy Score equation (above) are used to normalize for various dilution factors used for individual agents and to allow for comparison of synergy scores across an entire experiment. The inclusion of positive inhibition gating or an Idata multiplier removes noise near the zero effect level, and biases results for synergistic interactions at that occur at high activity levels.
# Loewe Volume (Loewe Vol) is used to assess the overall magnitude of the combination interaction in excess of the Loewe additivity model. Loewe Volume is particularly useful when distinguishing synergistic increases in a phenotypic activity (positive Loewe Volume) versus synergistic antagonisms (negative Loewe Volume). […] This model defines additivity as a non-synergistic combination interaction where the combination dose matrix surface should be indistinguishable from either drug crossed with itself. The calculation for Loewe additivity is:
# KARPAS-299 = test: as above; conditions: combination with Compound 1
# Mino = test: as above; conditions: combination with Compound 1
# KARPAS-422 = test: as above; conditions: combination with Compound 1, 72 h
# HBL-1 = test: as above; conditions: combination with Compound 1, 72 h
# SU-DHL-4-epst = test: as above; conditions: combination with Compound 1, 72 h
# OCI-Ly3 = test: as above; conditions: combination with Compound 1; OCI-Ly3; 72 h
# [1] = as above; conditions: combination with Compound 1; OPM-2
# OMP-2 = test: as above; conditions: combination with Compound 1; OPM-2
# DOHH-2 = test: as above; conditions: combination with Compound 1, 72 h
# GRANTA-519 = test: as above; conditions: combination with Compound 1
# RPMI-8226 = test: as above; conditions: combination with Compound 1
# RL = test: as above; conditions: combination with Compound 1, 72 h
# Experimental: as §1
# where T is treated cell count and V is untreated (vehicle) cell count (at 72 hours). I ranges from 0% (when T=V) to 100% (when T=0). […] The measure of effect in the experiment can be the inhibition of cellular response relative to the untreated level (vehicle alone). […] The inhibition ranges from 0% at the untreated level to 100% when T=0. Inhibition levels are negative for agents that actually increase levels. Other effect measures, such as an activity ratio r=T/V may be more appropriate for some assays. When activity ratios (e.g, fold increase over stimulated control) are being used, the effect can be measured using an induction 1=ln(T/V). With this definition, all effect expressions are the same as for inhibition.
# as §2, §3, §4, §5
# Loewe Volume (Loewe Vol) is used to assess the overall magnitude of the combination interaction in excess of the Loewe additivity model. Loewe Volume is particularly useful when distinguishing synergistic increases in a phenotypic activity (positive Loewe Volume) versus synergistic antagonisms (negative Loewe Volume). […] This model defines additivity as a non-synergistic combination interaction where the combination dose matrix surface should be indistinguishable from either drug crossed with itself.
# NCI-H929 = test: as above; conditions: combination with Compound 1
# OCI-Ly7 = test: as above; conditions: combination with Compound 1, 72 h
smiles,measurement,setting,value
O=C(NOC[C@H](O)CO)c1ccc(F)c(F)c1Nc1ccc(I)cc1F [PD0325901],CI50 growth inhibition,Jeko-1,U (U=0.7 to <1)
same,Synergy Score growth inhibition,Jeko-1,A1 (A1=0.0001 to <1)
same,Synergy Score inhibition,Jeko-1,A1 (A1=0.0001 to <1)
same,CI50 growth inhibition,U-2932,U (U=0.7 to <1)
same,Synergy Score growth inhibition,U-2932,A2 (A2=1 to <3)
same,Synergy Score inhibition,U-2932,A1 (A1=0.0001 to <1)
same,CI50 growth inhibition,Farage,W (W=≥1)
same,CI50 inhibition,Farage,W (W=≥1)
same,Synergy Score growth inhibition,Farage,A2 (A2=1 to <3)
same,Synergy Score inhibition,Farage,A1 (A1=0.0001 to <1)
same,CI50 growth inhibition,WSU-NHL,S (S=0.01 to <0.5)
same,CI50 inhibition,WSU-NHL,S (S=0.01 to <0.5)
same,Synergy Score growth inhibition,WSU-NHL,A3 (A3=>3)
same,Synergy Score inhibition,WSU-NHL,A3 (A3=>3)
same,CI50 growth inhibition,TMD8,U (U=0.7 to <1)
same,CI50 inhibition,TMD8,U (U=0.7 to <1)
same,Synergy Score growth inhibition,TMD8,A3 (A3=>3)
same,Synergy Score inhibition,TMD8,A3 (A3=>3)
same,CI50 growth inhibition,HH,W (W=≥1)
same,CI50 inhibition,HH,U (U=0.7 to <1)
same,Synergy Score growth inhibition,HH,A2 (A2=1 to <3)
same,Synergy Score inhibition,HH,A1 (A1=0.0001 to <1)
same,CI50 growth inhibition,SU-DHL-10-epst,S (S=0.01 to <0.5)
same,CI50 inhibition,SU-DHL-10-epst,S (S=0.01 to <0.5)
same,Synergy Score growth inhibition,SU-DHL-10-epst,A3 (A3=>3)
same,Synergy Score inhibition,SU-DHL-10-epst,A2 (A2=1 to <3)
same,CI50 growth inhibition,KARPAS-299,S (S=0.01 to <0.5)
same,Synergy Score growth inhibition,KARPAS-299,A2 (A2=1 to <3)
same,Synergy Score inhibition,KARPAS-299,A1 (A1=0.0001 to <1)
same,CI50 growth inhibition,Mino,S (S=0.01 to <0.5)
same,CI50 inhibition,Mino,S (S=0.01 to <0.5)
same,Synergy Score growth inhibition,Mino,A3 (A3=>3)
same,Synergy Score inhibition,Mino,A3 (A3=>3)
same,CI50 growth inhibition,KARPAS-422,S (S=0.01 to <0.5)
same,CI50 inhibition,KARPAS-422,T (T=0.5 to <0.7)
same,Synergy Score growth inhibition,KARPAS-422,A2 (A2=1 to <3)
same,Synergy Score inhibition,KARPAS-422,A2 (A2=1 to <3)
same,CI50 growth inhibition,HBL-1,T (T=0.5 to <0.7)
same,Synergy Score growth inhibition,HBL-1,A2 (A2=1 to <3)
same,Synergy Score inhibition,HBL-1,A1 (A1=0.0001 to <1)
same,CI50 growth inhibition,SU-DHL-4-epst,S (S=0.01 to <0.5)
same,CI50 inhibition,SU-DHL-4-epst,T (T=0.5 to <0.7)
same,Synergy Score growth inhibition,SU-DHL-4-epst,A2 (A2=1 to <3)
same,Synergy Score inhibition,SU-DHL-4-epst,A2 (A2=1 to <3)
same,CI50 growth inhibition,OCI-Ly3,S (S=0.01 to <0.5)
same,Synergy Score growth inhibition,OCI-Ly3,A2 (A2=1 to <3)
same,Synergy Score inhibition,OCI-Ly3,A1 (A1=0.0001 to <1)
same,CI50 growth inhibition,[1],U (U=0.7 to <1)
same,CI50 inhibition,OMP-2,W (W=≥1)
same,Synergy Score growth inhibition,OMP-2,A3 (A3=>3)
same,Synergy Score inhibition,OMP-2,A2 (A2=1 to <3)
same,CI50 growth inhibition,DOHH-2,W (W=≥1)
same,CI50 inhibition,DOHH-2,W (W=≥1)
same,Synergy Score growth inhibition,DOHH-2,A1 (A1=0.0001 to <1)
same,Synergy Score inhibition,DOHH-2,A1 (A1=0.0001 to <1)
same,CI50 growth inhibition,GRANTA-519,S (S=0.01 to <0.5)
same,Synergy Score growth inhibition,GRANTA-519,A3 (A3=>3)
same,Synergy Score inhibition,GRANTA-519,A2 (A2=1 to <3)
same,CI50 growth inhibition,RPMI-8226,U (U=0.7 to <1)
same,Synergy Score growth inhibition,RPMI-8226,A2 (A2=1 to <3)
same,Synergy Score inhibition,RPMI-8226,A2 (A2=1 to <3)
same,Synergy Score growth inhibition,RL,A1 (A1=0.0001 to <1)
same,Synergy Score inhibition,RL,A1 (A1=0.0001 to <1)
same,CI50 growth inhibition,NCI-H929,S (S=0.01 to <0.5)
same,CI50 inhibition,NCI-H929,U (U=0.7 to <1)
same,Synergy Score growth inhibition,NCI-H929,A3 (A3=>3)
same,Synergy Score inhibition,NCI-H929,A2 (A2=1 to <3)
same,Synergy Score growth inhibition,OCI-Ly7,A1 (A1=0.0001 to <1)
same,Synergy Score inhibition,OCI-Ly7,A1 (A1=0.0001 to <1)
